According to patent publication US9982005B2, “Macrolides and methods of their preparation and use” (President and Fellows of Harvard College, priority 2013, dated 2018):
≈ marks a conversion by molar mass, not a printed value. Read-outs that look alike come from different tables or passages of the source.

Assays:
Type in all cases: cell-based
E. coli (MC4100) = assay: MIC, E. coli MC4100; settings: Escherichia coli
Description: (§1) We have collected MIC data for a total of 50 novel macrolides that this platform has produced against over 21 unique strains of B. subtilis, E. coli, S. aureus, S. pneumoniae, and H. influenzae, including several multidrug-resistant strains, with a special focus on macrolide resistant mechanisms (vide supra). Azithromycin was included as a control macrolide. CLSI standard procedures for broth dilution MIC determination were used. […] These genotypes can be constitutive or inducible. The finding that C4-epi (unnatural) isomers of the “azaketolide” macrolide class have enhanced activities relative to C4 natural isomers is very exciting.

[1] = test system: S. aureus (Newman, clinical isolate); assay: MIC, S. aureus Newman; settings: Staphylococcus aureus
Description: as §1

S. pneumoniae strains = assay: MIC against S. pneumoniae strains (Tables M7, M8); settings: Streptococcus pneumoniae
Description: CLSI standard procedures for broth dilution MIC determination were used. […] These genotypes can be constitutive or inducible.

EC878 E. coli tolC = assay: broth dilution MIC, E. coli EC878; settings: Escherichia coli
Description: as §1

[2] = test system: BS1723 B. subtilis BS168 WT wild type; assay: broth dilution MIC, B. subtilis BS1723; settings: Bacillus subtilis, BS1723 B. subtilis BS168 WT wild type; read-out: MIC
Description: as §1

BS1725 B. subtilis ermC = assay: broth dilution MIC, B. subtilis BS1725; settings: Bacillus subtilis
Description: as §1

K. pneumoniae strains = assay: MIC against K. pneumoniae strains (Table M8); settings: Klebsiella pneumoniae, K. pneumoniae 10031
S. aureus strains = assay: MIC against S. aureus strains (Table M7); settings: Staphylococcus aureus
Method in brief: (§2)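 CLSI procedure, broth dilution format, endpoint = MIC. Azithromycin as control macrolide.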

[3] = test system: SA101 S. aureus ATCC29213; assay: broth dilution MIC, S. aureus SA101; settings: Staphylococcus aureus, ATCC29213, SA101 S. aureus ATCC29213; read-out: MIC
Description: as §1

H. influenzae strains = assay: MIC against H. influenzae strains (Table M8); settings: Haemophilus influenzae
Method in brief: as §2

E. faecalis strains = assay: MIC against E. faecalis strains (Table M8); settings: Enterococcus faecalis, E. faecalis 29212
EC107 E. coli ATCC25922 = assay: broth dilution MIC, E. coli EC107; settings: Escherichia coli, read-out: MIC
Description: as §1

E. coli strains = assay: MIC against E. coli strains (Table M7); settings: Escherichia coli, ATCC25922, E. coli ATCC 25922
Method in brief: as §2

A. baumannii strains = assay: MIC against A. baumannii strains (Table M8); settings: Acinetobacter baumannii, BAA747, A. baumannii BAA747-1
EC882 E. coli imp = assay: broth dilution MIC, E. coli EC882; settings: Escherichia coli
Description: as §1

[4] = S. aureus (Neuman, clinical isolate), round 2
[5] = S. pneumoniae 160, read-out: MIC S. pneumonae (160)
[6] = S. pneumoniae 1509, read-out: MIC S. pneumoniae (1509)
[7] = S. pneumoniae 1533, read-out: MIC S. pneumoniae (1533)
[8] = S. pneumoniae 1537, read-out: MIC S. pneumoniae (1537)
[9] = S. pneumoniae 49619, read-out: MIC S. pneumoniae (49619)
[10] = ATCC29213, S. aureus ATCC 29213, read-out: MIC S. aureus (ATCC 29213)
[11] = S. aureus 506, read-out: MIC S. aureus (506)
[12] = S. aureus 1708, read-out: MIC S. aureus (1708)
[13] = USA300, S. aureus USA300, read-out: MIC S. aureus (USA300)
[14] = H. influenzae 49247, read-out: MIC H. influenzae (49247)
[15] = H. influenzae 49766, read-out: MIC H. influenzae (49766)

MIC (E. coli (MC4100); round 2, read-out: MIC) [µg/mL]	MIC [1, 4] [µg/mL]	SMILES	MIC (S. pneumoniae strains; [5]) [µg/mL]	MIC (S. pneumoniae strains; [6]) [µg/mL]	MIC (S. pneumoniae strains; [7]) [µg/mL]	MIC (S. pneumoniae strains; [8]) [µg/mL]	MIC (S. pneumoniae strains; [9]) [µg/mL]	MIC (EC878 E. coli tolC) [µg/mL]	MIC [2] [µg/mL]	MIC (BS1725 B. subtilis ermC; BS1725 B. subtilis ermC (+ery)) [µg/mL]	MIC (K. pneumoniae strains) [µg/mL]	MIC (S. aureus strains; [10]) [µg/mL]	MIC (S. aureus strains; [11]) [µg/mL]	MIC (S. aureus strains; [12]) [µg/mL]	MIC (S. aureus strains; [13]) [µg/mL]	MIC [3] [µg/mL]	MIC (H. influenzae strains; [14]) [µg/mL]	MIC (H. influenzae strains; [15]) [µg/mL]	MIC (E. faecalis strains) [µg/mL]	MIC (EC107 E. coli ATCC25922) [µg/mL]	other results
–	–	CC[C@H]1OC(=O)[C@H](C)C(=O)[C@H](C)[C@@H](O[C@@H]2OC(C)CC(N(C)C)C2O)[C@](C)(OC)C[C@@H](C)CN[C@H](C)[C@H]2N(CCCCCn3cc(-c4ccccn4)nn3)C(=O)O[C@]12C (stereo partly shown) [FSM-40350]	–	–	–	–	–	–	–	–	–	–	–	–	–	–	–	–	–	–	MIC (E. coli (MC4100); round 1, read-out: MIC): 16 µg/mL (≈ 19.3 µM); MIC ([1]; S. aureus (Newman, clinical isolate), round 1): 2 µg/mL (≈ 2.42 µM)
32 (≈ 35.4 µM)	8 (≈ 8.85 µM)	CC[C@H]1OC(=O)[C@H](Cc2ccccc2)C(=O)[C@H](C)[C@@H](O[C@@H]2OC(C)CC(N(C)C)C2O)[C@](C)(OC)C[C@@H](C)CN[C@H](C)[C@H]2N(CCCCn3cc(-c4cccc(N)c4)nn3)C(=O)O[C@]12C (stereo partly shown) [FSM-56158]	–	–	–	–	–	–	–	–	–	–	–	–	–	–	–	–	–	–	–
–	–	CC[C@H]1OC(=O)[C@H](C)C(=O)[C@H](C)[C@@H](O[C@@H]2OC(C)CC(N(C)C)C2O)[C@](C)(OC)C[C@@H](C)CN[C@H](C)[C@H]2N(CCCCn3cc(-c4nc5ccccc5s4)nn3)C(=O)O[C@]12C (stereo partly shown) [FSM-20711]	0.125 (≈ 0.144 µM)	> 32	> 32	> 32	0.5 (≈ 0.575 µM)	0.5 (≈ 0.575 µM)	2 (≈ 2.3 µM)	32 (≈ 36.8 µM)	4 (≈ 4.6 µM)	4 (≈ 4.6 µM)	> 32	4 (≈ 4.6 µM)	4 (≈ 4.6 µM)	2 (≈ 2.3 µM)	1 (≈ 1.15 µM)	8 (≈ 9.19 µM)	1 (≈ 1.15 µM)	16 (≈ 18.4 µM)	MIC (E. coli strains): 16 µg/mL (≈ 18.4 µM); MIC (A. baumannii strains): > 32 µg/mL; MIC (EC882 E. coli imp): 0.0312 µg/mL (≈ 0.0359 µM)
> 32	> 32	CC[C@H]1OC(=O)[C@H](C)C(=O)[C@H](C)[C@@H](O[C@@H]2OC(C)CC(N(C)C)C2O)/C(C)=C/CN[C@H](C)[C@H]2N(CCCCn3cc(-c4ccccn4)nn3)C(=O)O[C@]12C (stereo partly shown) [FSM-30625]	–	–	–	–	–	–	–	–	–	–	–	–	–	–	–	–	–	–	–
–	–	CC[C@H]1OC(=O)[C@H](C)C(=O)C[C@@H](O[C@@H]2OC(C)CC(N(C)C)C2O)[C@@](C)(OC)C[C@@H](C)CN[C@H](C)[C@H]2N(CCCCn3cc(-c4cccc(N)c4)nn3)C(=O)O[C@]12C (stereo partly shown) [FSM-30502]	> 32	> 32	> 32	> 32	> 32	> 32	> 32	> 32	> 32	> 32	> 32	> 32	> 32	> 32	16 (≈ 19.7 µM)	> 32	> 32	> 32	MIC (BS1725 B. subtilis ermC; BS1725 B. subtilis ermC (−ery)): > 32 µg/mL; MIC (E. coli strains): > 32 µg/mL; MIC (A. baumannii strains): > 32 µg/mL; MIC (EC882 E. coli imp): > 32 µg/mL
32 (≈ 40 µM)	16 (≈ 20 µM)	CC[C@H]1OC(=O)CC(=O)[C@H](C)[C@@H](O[C@@H]2OC(C)CC(N(C)C)C2O)[C@](C)(OC)C[C@@H](C)CN[C@H](C)[C@H]2N(CCCCn3cc(-c4ccccn4)nn3)C(=O)O[C@]12C (stereo partly shown) [FSM-56139]	–	–	–	–	–	–	–	–	–	–	–	–	–	–	–	–	–	–	–
–	–	CC[C@H]1OC(=O)[C@H](C)C(=O)[C@H](C)[C@@H](O[C@@H]2OC(C)CC(N(C)C)C2O)[C@](C)(OC)C[C@@H](C)CN(C(C)=O)[C@H](C)[C@H]2N(CCCCn3cc(-c4cccc(N)c4)nn3)C(=O)O[C@]12C (stereo partly shown) [FSM-20767]	2 (≈ 2.3 µM)	> 32	> 32	> 32	0.5 (≈ 0.575 µM)	4 (≈ 4.6 µM)	16 (≈ 18.4 µM)	> 32	32 (≈ 36.8 µM)	16 (≈ 18.4 µM)	> 32	32 (≈ 36.8 µM)	32 (≈ 36.8 µM)	16 (≈ 18.4 µM)	8 (≈ 9.19 µM)	16 (≈ 18.4 µM)	4 (≈ 4.6 µM)	> 32	MIC (BS1725 B. subtilis ermC; BS1725 B. subtilis ermC (−ery)): 8 µg/mL (≈ 9.19 µM); MIC (E. coli strains): > 32 µg/mL; MIC (A. baumannii strains): > 32 µg/mL; MIC (EC882 E. coli imp): 1 µg/mL (≈ 1.15 µM)
